Literature values as cited in US20250161199A1, “FORMULATION FOR TREATING AND PREVENTING HAIR LOSS” (DR. BARR - MEDICINE AS ART LTD, priority 2023, published 2025).

System: androgenic alopecia
Conditions: in vivo

Compound | time until effect becomes apparent
CC(C)(C)NC(=O)[C@H]1CC[C@H]2[C@@H]3CC[C@H]4NC(=O)C=C[C@]4(C)[C@H]3CC[C@]12C [finasteride] | only after several months of treatment
C[C@]12C=CC(=O)N[C@@H]1CC[C@@H]1[C@@H]2CC[C@]2(C)[C@@H](C(=O)Nc3cc(C(F)(F)F)ccc3C(F)(F)F)CC[C@@H]12 [dutasteride] | only after several months of treatment
